According to patent publication US9902725B2, “Heterocyclic derivatives as RORgamma modulators” (GENFIT, priority 2014, dated 2018):

Tests used:
[1] = target: T1, human RORγt (Homo sapiens, UniProt P51449); assay: IL-17 secretion from EL4 murine lymphoma overexpressing human RORγt; format: cell-based; design: expressed in transfected cells; host or cells: EL-4 murine lymphoma; settings: IL-17 secretion inhibition, PMA and ionomycin stimulation, 24 h
T1 sequence (P51449 1-497 isoform P51449-2): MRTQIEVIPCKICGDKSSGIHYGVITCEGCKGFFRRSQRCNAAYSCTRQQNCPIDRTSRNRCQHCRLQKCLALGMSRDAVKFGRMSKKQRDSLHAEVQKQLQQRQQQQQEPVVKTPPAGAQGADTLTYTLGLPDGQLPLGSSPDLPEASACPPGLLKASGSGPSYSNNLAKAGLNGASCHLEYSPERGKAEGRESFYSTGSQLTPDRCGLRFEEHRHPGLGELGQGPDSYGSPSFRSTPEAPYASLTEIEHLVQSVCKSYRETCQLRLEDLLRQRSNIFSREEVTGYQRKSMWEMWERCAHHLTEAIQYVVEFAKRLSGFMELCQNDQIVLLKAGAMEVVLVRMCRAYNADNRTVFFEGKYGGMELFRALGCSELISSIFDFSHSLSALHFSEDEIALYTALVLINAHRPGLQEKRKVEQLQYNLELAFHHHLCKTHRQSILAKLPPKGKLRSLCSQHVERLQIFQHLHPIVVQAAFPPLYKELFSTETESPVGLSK
Experimental: Murine EL-4 lymphoma cell line overexpressing human RORγt was used in this functional assay to assess compound ability to inhibit IL-17 cytokine secretion.
EL-4 cells are maintained in a standard culture medium RPMI supplemented with 10% fetal calf serum, 1% sodium pyruvate, 1% essential amino acids and 1% antibiotics at 37° C. in a humidified atmosphere of 5% CO2 and 95% air. Culture medium was changed every 2 days. EL4 cells were transfected with a plasmid encoding hRORγt (sequence identical to published sequence NM 001001523). […] Briefly, 1 μg of DNA/1 million cells was served to transfect EL-4 cells. Cell/DNA suspension was transferred into certified cuvette and the electroporation of RORγt plasmid was carried out using appropriate Nucleofector® program.
Cells were seeded in 96 well plates at a density of 150000 cells/well then treated with compounds of this invention at indicated concentrations and incubated for 24 hours at 37° C. in a humidified atmosphere of 5% CO2 and 95% air. EL-4 cells were pretreated with test compounds (RORγ modulators) and stimulated with PMA (10 ng/mL) and ionomycin (1 μM final concentration) in the presence of test compound concentrations for additional 24 h at 37° C. in a humidified atmosphere of 5% CO2 and 95% air. Subsequently, supernatants were collected (after centrifugation at 300 g for 10 minutes) to determine the concentrations of IL-17 by HTRF (CisBio, France) or ELISA (R&D Systems Europe) according to the manufacturer's protocols.

[2] = target: T2, RORγt ligand-binding domain (RORγt-LBD) (Homo sapiens, UniProt P51449); assay: Time-resolved FRET (TR-FRET) RORγt coactivator assay; format: biochemical; settings: GST-RORγ-LBD, biotinylated RIP140 peptide, coactivator displacement
T2 construct: 20 nM recombinantly expressed RORγ-LBD fused to GST
T2 sequence (P51449 269-508 limits assumed): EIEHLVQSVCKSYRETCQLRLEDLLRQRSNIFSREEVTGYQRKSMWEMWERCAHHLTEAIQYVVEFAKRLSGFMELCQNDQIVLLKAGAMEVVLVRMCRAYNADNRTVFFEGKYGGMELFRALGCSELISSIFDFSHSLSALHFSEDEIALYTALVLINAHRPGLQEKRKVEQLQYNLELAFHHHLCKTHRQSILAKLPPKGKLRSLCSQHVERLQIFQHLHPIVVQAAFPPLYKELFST

Row | IC50 [1] [µM] | IC50 [2] [µM] | Compound
1 | 10 to 30 | < 1 | CC(C)(C)OC(=O)CCc1c[nH]c2ccc(CC(=O)NC(c3ccccc3)c3ccc(Cl)cc3N3CCCC3)cc12 (stereo not drawn) [Cpd. 90, tert-butyl 3-{5-[({[4-chloro-2-(pyrrolidin-1-yl)phenyl](phenyl)methyl}carbamoyl)methyl]-1H-indol-3-yl}propanoate]
2 | 1 to 10 | < 1 | Cc1ccc(C(NC(=O)Cc2ccc3[nH]cc(CCC(=O)OC(C)(C)C)c3c2)c2ccccc2)c(NC(C)C)c1 (stereo not drawn) [Cpd. 125, tert-butyl 3-(5-{[({4-methyl-2-[(propan-2-yl)amino]phenyl}(phenyl)methyl)carbamoyl]methyl}-1H-indol-3-yl)propanoate]
3 | 1 to 10 | < 1 | COC(=O)Cc1c[nH]c2ccc(CC(=O)NC(c3ccccc3)c3ccc(C)cc3N3CCOCC3)cc12 (stereo not drawn) [Cpd. 96, methyl 2-{5-[({[4-methyl-2-(morpholin-4-yl)phenyl](phenyl)methyl}carbamoyl)methyl]-1H-indol-3-yl}acetate]
4 | 1 to 10 | < 1 | COC(=O)Cc1c[nH]c2ccc(CC(=O)NC(c3ccccc3)c3ccc(Cl)cc3N3CCCC3)cc12 (stereo not drawn) [Cpd. 84, methyl 2-{5-[({[4-chloro-2-(pyrrolidin-1-yl)phenyl](phenyl)methyl}carbamoyl)methyl]-1H-indol-3-yl}acetate]
5 | 1 to 10 | < 1 | CCNc1cc(C)ccc1C(NC(=O)Cc1ccc2[nH]cc(CCC(=O)OC(C)(C)C)c2c1)c1ccccc1 (stereo not drawn) [Cpd. 119, tert-butyl 3-{5-[({[2-(ethylamino)-4-methylphenyl](phenyl)methyl}carbamoyl)methyl]-1H-indol-3-yl}propanoate]
6 | 1 to 10 | < 1 | CC(C)(C)CC(NC(=O)Cc1ccc2[nH]cc(CCC(=O)O)c2c1)c1ccccc1N1CCCCC1 (stereo not drawn) [compound 186, 3-{5-[({3,3-dimethyl-1-[2-(piperidin-1-yl)phenyl]butyl}carbamoyl)methyl]-1H-indol-3-yl}propanoic acid]
7 | 1 to 10 | < 1 | COc1ccc(C(NC(=O)Cc2ccc3[nH]cc(CCC(=O)O)c3c2)c2ccccc2)c(N2CCCC2)c1 (stereo not drawn) [compound 109, 3-{5-[({[4-methoxy-2-(pyrrolidin-1-yl)phenyl](phenyl)methyl}carbamoyl)methyl]-1H-indol-3-yl}propanoic acid]
8 | 1 to 10 | < 1 | COc1cc(C)ccc1C(NC(=O)Cc1ccc2[nH]cc(CCC(=O)OC(C)(C)C)c2c1)c1ccccc1 (stereo not drawn) [Cpd. 98, tert-butyl 3-[5-({[(2-methoxy-4-methylphenyl)(phenyl)methyl]carbamoyl}methyl)-1H-indol-3-yl]propanoate]
9 | 1 to 10 | < 1 | CC(C)(C)OC(=O)CCc1c[nH]c2ccc(CC(=O)NC(c3ccccc3)c3ccc(C#N)cc3N3CCCC3)cc12 (stereo not drawn) [Cpd. 59, tert-butyl 3-{5-[({[4-cyano-2-(pyrrolidin-1-yl)phenyl](phenyl)methyl}carbamoyl)methyl]-1H-indol-3-yl}propanoate]
10 | 1 to 10 | < 1 | CNC(=O)CCc1c[nH]c2ccc(CC(=O)NC(c3ccccc3)c3ccccc3N3CCCCC3)cc12 (stereo not drawn) [compound 115, N-methyl-3-{5-[({phenyl[2-(piperidin-1-yl)phenyl]methyl}carbamoyl)methyl]-1H-indol-3-yl}propanamide]
11 | 1 to 10 | < 1 | CCOC(=O)CCCCc1c[nH]c2ccc(CC(=O)NC(c3ccccc3)c3ccccc3N3CCCCC3)cc12 (stereo not drawn) [Cpd. 216, ethyl 5-{5-[({phenyl[2-(piperidin-1-yl)phenyl]methyl}carbamoyl)methyl]-1H-indol-3-yl}pentanoate]
12 | 1 to 10 | 1 to 10 | CCN(CC)c1ccccc1C(CC(C)C)NC(=O)Cc1ccc2[nH]cc(CCC(=O)O)c2c1 (stereo not drawn) [compound 174, 3-{5-[({1-[2-(diethylamino)phenyl]-3-methylbutyl}carbamoyl)methyl]-1H-indol-3-yl}propanoic acid]
13 | 1 to 10 | < 1 | CCOC(=O)CCc1n[nH]c2ccc(CC(=O)NC(c3ccccc3)c3ccc(C)cc3OC(C)C)cc12 (stereo not drawn) [Cpd. 159, ethyl 3-{5-[({[4-methyl-2-(propan-2-yloxy)phenyl](phenyl)methyl}carbamoyl)methyl]-1H-indazol-3-yl}propanoate]
14 | 1 to 10 | 10 to 30 | CC(C)(C)OC(=O)CCc1c[nH]c2ccc(NC(=O)NC(c3ccccc3)c3ccccc3N3CCCCC3)cc12 (stereo not drawn) [compound 55, tert-butyl 3-{5-[({phenyl[2-(piperidin-1-yl)phenyl]methyl}carbamoyl)amino]-1H-indol-3-yl}propanoate]
15 | 1 to 10 | < 1 | COc1ccc(C(NC(=O)Cc2ccc3[nH]cc(CCC(=O)OC(C)(C)C)c3c2)c2ccccc2)c(N2CCCCC2)c1 (stereo not drawn) [Cpd. 110, tert-butyl 3-{5-[({[4-methoxy-2-(piperidin-1-yl)phenyl](phenyl)methyl}carbamoyl)methyl]-1H-indol-3-yl}propanoate]
16 | 10 to 30 | < 1 | Cc1ccc(C(NC(=O)Cc2ccc3[nH]nc(CCC(=O)O)c3c2)c2ccccc2)c(OC(C)C)c1 (stereo not drawn) [compound 160, 3-{5-[({[4-methyl-2-(propan-2-yloxy)phenyl](phenyl)methyl}carbamoyl)methyl]-1H-indazol-3-yl}propanoic acid]
17 | < 1 | < 1 | COC(=O)Cc1c[nH]c2ccc(CC(=O)NC(c3ccccc3)c3ccc(C)cc3N3CCCC3)cc12 (stereo not drawn) [Cpd. 64, methyl 2-{5-[({[4-methyl-2-(pyrrolidin-1-yl)phenyl](phenyl)methyl}carbamoyl)methyl]-1H-indol-3-yl}acetate]
18 | 1 to 10 | < 1 | Cc1ccc(C(NC(=O)Cc2ccc3[nH]cc(CCC(=O)O)c3c2)c2ccccc2)c(OC(C)C)c1 (stereo not drawn) [compound 146, 3-{5-[({[4-methyl-2-(propan-2-yloxy)phenyl](phenyl)methyl}carbamoyl)methyl]-1H-indol-3-yl}propanoic acid]
19 | 1 to 10 | 1 to 10 | CC(C)(C)OC(=O)CCc1c[nH]c2ccc(CC(=O)NC(c3ccccc3)c3ccccc3N3CCCC3)cc12 (stereo not drawn) [Cpd. 78, tert-butyl 3-{5-[({phenyl[2-(pyrrolidin-1-yl)phenyl]methyl}carbamoyl)methyl]-1H-indol-3-yl}propanoate]
20 | 1 to 10 | < 1 | CCNc1cc(C)ccc1C(NC(=O)Cc1ccc2[nH]cc(CCC(=O)O)c2c1)c1ccccc1 (stereo not drawn) [compound 120, 3-{5-[({[2-(ethylamino)-4-methylphenyl](phenyl)methyl}carbamoyl)methyl]-1H-indol-3-yl}propanoic acid]
21 | 1 to 10 | < 1 | COc1ccc(C(NC(=O)Cc2ccc3[nH]cc(CCC(=O)OC(C)(C)C)c3c2)c2ccccc2)c(N2CCCCCC2)c1 (stereo not drawn) [Cpd. 141, tert-butyl 3-{5-[({[2-(azepan-1-yl)-4-methoxyphenyl](phenyl)methyl}carbamoyl)methyl]-1H-indol-3-yl}propanoate]
22 | 1 to 10 | < 1 | Cc1cccc(C(NC(=O)Cc2ccc3[nH]cc(CCC(=O)O)c3c2)c2ccccc2N2CCCCC2)c1 (stereo not drawn) [compound 158, 3-[5-({[(3-methylphenyl)[2-(piperidin-1-yl)phenyl]methyl]carbamoyl}methyl)-1H-indol-3-yl]propanoic acid]
23 | 1 to 10 | 1 to 10 | O=C(O)CCc1c[nH]c2ccc(CC(=O)NC(CC3CCCCC3)c3ccccc3N3CCCCC3)cc12 (stereo not drawn) [compound 162, 3-{5-[({2-cyclohexyl-1-[2-(piperidin-1-yl)phenyl]ethyl}carbamoyl)methyl]-1H-indol-3-yl}propanoic acid]
24 | 1 to 10 | < 1 | COC(=O)Cc1c[nH]c2ccc(CC(=O)NC(c3ccccc3)c3ccc(C(F)(F)F)cc3N3CCCC3)cc12 (stereo not drawn) [Cpd. 88, methyl 2-{5-[({phenyl[2-(pyrrolidin-1-yl)-4-(trifluoromethyl)phenyl]methyl}carbamoyl)methyl]-1H-indol-3-yl}acetate]
